For experiment [1], the target named is A1AR. Conditions: source not given; cited from earlier work.
Experiment [2] has as its system Nluc-tagged hA3AR-BRIL-S97R. Nature of the experiment: NanoBRET washout (irreversible binding) assay vs XAC-630. (BRET reads energy transfer from a luciferase to a nearby fluorophore.)
The test system of experiment [3] is A3AR H95^3.37 alanine mutation. Conditions: cited from earlier work.

This is an account of results in publication PMC12361428 (Nature Communications, 2025).

Values joined by “and” are separate entries in the source; they are usually repeats but may differ in a detail not shown here. Identical values can stand only once.

As to `CCCn1c(=O)c2[nH]c(C3CCCCC3)nc2n(CCCNC(=O)c2ccc(S(=O)(=O)F)cc2)c1=O` [DU172], the pKi in experiment [1] is 7.4.
`O=C(Cc1ccccc1)Nc1nc2ccc(Cl)cc2c2nc(-c3ccco3)nn12` [MRS1220, 9-Chloro-2-(2-furanyl)-5-((phenylacetyl)amino)-[1,2,4]triazolo[1,5-c]quinazoline]: the “NanoBRET washout assay, normalised signal (Figure S2G), individual replicates” value in experiment [2] (4 x Wash) was 60.7809 and 60.2862 and 64.3691; in experiment [2] (Control (no wash)), 11.5596 and 12.4414 and 6.2814 and 13.7989.
For `CNC(=O)[C@H]1O[C@@H](n2cnc3c(NCc4cccc(I)c4)nc(Cl)nc32)[C@H](O)[C@@H]1O` [Namodenoson], the decrease in binding in experiment [3] was 30 fold.
In the case of `CC[C@@H]1CN2C(=O)N(C)c3nc(-c4ccccc4)[nH]c3C2=N1` [PSB11], the “NanoBRET washout assay, normalised signal (Figure S2G), individual replicates” value is 116.307 and 107.384 and 90.4226 and 99.5492 in experiment [2] (4 x Wash); 1.581 and 3.183e-15 and -2.281 and -2.887e-15 in experiment [2] (Control (no wash)).

One may read the pKi as the negative decadic logarithm of the Ki, by convention in mol/L.
